Reference: patent US7030126B2, “Use of polyamine analogs for amyotrophic lateral sclerosis” (ALS Therapy Development Foundation, Inc., priority 2001, dated 2006)
Read-outs that look alike come from different tables or passages of the source.

How the values were obtained:
SOD1 G93A mice [1] = system: SOD1 G93A mice
Description: (vi) Neurological Scoring: Neurological score of each limb was monitored and recorded according to a defined 4-point scale defined below: […]

SOD1 G93A mice [2] = test: DENSPM in SOD-1 (G93A) mouse model of ALS: survival and neurological score; format: in vivo; conditions: female mice
Description: (§1) Survival in the mouse is copy dependent.
Results are shown in FIGS. 12 and 13 and described below.

[3] = system: cellular concentrations of putrescine, spermidine and spermine; conditions: cited from earlier work
[4] = system: patients with advanced non-small cell lung cancer; conditions: Phase I; cited from earlier work
SOD1 G93A mice [5] = test: Discontinuous dosing of DFMO in SOD-1 (G93A) mouse model of ALS: survival and neurological score; format: in vivo
Description: as §1
(§2) Controls animals were given water as vehicle.
Results are shown in FIGS. 2 and 3 and described below.

SOD1 G93A mice [6] = test: Continuous dosing of DFMO in SOD-1 (G93A) mouse model of ALS: survival and neurological score; format: in vivo
Experimental: as §1, §2
During this study, DFMO was delivered chronically at a dose of 3200 mg/Kg/day in drinking water […] without any drug holiday until death according to the methods described in Example 1. Results are shown in FIGS. 4–9 and described below.

SOD1 G93A mice [7] = test: Ongoing IP injection study of DFMO in SOD1 G93A mice; format: in vivo, mouse; conditions: 3200 mg/kg
Description: Studies are currently underway to analyze polyamines in male vs. female mSOD1 mice and wild-type mice. While positive effects are seen in male mice, the effect is less reliable at current doses. Differences in polyamine synthesis and regulation exist between the sexes and may account for the different observed effects. […] Higher plasma concentration of DFMO can be achieved by systemic delivery as opposed to oral delivery.

[8] = 24 mg/kg/day IP twice daily till death, FIG. 12

SMILES: NC(=O)NO [hydroxyurea]
- onset of ALS disease (SOD1 G93A mice [1]; 250 mg/Kg/day IP once daily, day 50 to day 110): delays the onset of ALS disease
- life span / survival (SOD1 G93A mice [1]; female mice, 250 mg/Kg/day IP once daily, day 50 to day 110, FIG. 10): extended the life span
- neurological score analysis, effect (SOD1 G93A mice [1]; female mice, 250 mg/Kg/day IP, FIG. 11): protective

SMILES: CCNCCCNCCCNCCCNCC [DENSPM, N(1),N(11)-diethylnorspermine]
- onset of disease (SOD1 G93A mice [2]; [8]): delays the onset of disease
- survival (SOD1 G93A mice [2]; [8]): extends the survival
- neurological score analysis, effect (SOD1 G93A mice [2]; 24 mg/kg/day IP twice daily, FIG. 13): protective
- cellular concentrations of putrescine, spermidine and spermine [3]: reduce
- toxicity in patients [4]: minimal toxicity

SMILES: NCCCC(N)(C(=O)O)C(F)F (racemic) [DFMO, 2-(Difuoromethyl)-DL-ornithine]
- onset of disease (SOD1 G93A mice [5]; 3200 mg/Kg/day in drinking water, 21 days on, 7 day drug holiday): delays the onset of disease
- survival (SOD1 G93A mice [5]; 3200 mg/Kg/day in drinking water, 21 days on, 7 day drug holiday, FIG. 2): extends the survival
- neurological score analysis, effect (SOD1 G93A mice [5]; combined male and female results, discontinuous delivery): No effect
- neurological score analysis, effect (SOD1 G93A mice [5]; female mice, during drug delivery period, discontinuous delivery, FIG. 3): protective
- deaths of animals in the treatment group that occurred during the drug holiday or a few days immediately succeeding the holiday (SOD1 G93A mice [5]; female mice, 3200 mg/Kg/day in drinking water, 21 days on, 7 day drug holiday, FIG. 2): 70%
- total female effect (SOD1 G93A mice [5]; female mice, discontinuous delivery, FIG. 3): 3.5%
- neurological score analysis, effect (SOD1 G93A mice [5]; male mice, discontinuous delivery): No effect
- onset of disease (SOD1 G93A mice [6]; 3200 mg/Kg/day in drinking water, no drug holiday): delays the onset of disease
- life span / survival (SOD1 G93A mice [6]; 3200 mg/Kg/day in drinking water, no drug holiday, FIGS. 4, 6 and 8): extended the life span
- neurological score analysis, effect (SOD1 G93A mice [6]; combined male and female, continuous delivery, FIG. 5): protective
- effect (SOD1 G93A mice [6]; female mice, continuous delivery): 11.48%
- neurological score analysis, effect (SOD1 G93A mice [6]; female mice, continuous delivery, FIG. 9): protective
- total combined effect (SOD1 G93A mice [6]; male and female combined, continuous delivery, Cox proportional hazard, litter effect as frailty term, p=0.02): 9.69%
- effect (SOD1 G93A mice [6]; male mice, continuous delivery): 8.21%
- neurological score analysis, effect (SOD1 G93A mice [6]; male mice, continuous delivery, FIG. 7): protective
- trend in male mice (SOD1 G93A mice [7]): positive male trend
